The target in this assay is T1, STAT6 (Homo sapiens, UniProt P42226).
T1 construct: endogenous in cells; host or cells: MOLM-16, KU-812, SKNO1, MB231, L1236
T1 sequence (P42226 1-847): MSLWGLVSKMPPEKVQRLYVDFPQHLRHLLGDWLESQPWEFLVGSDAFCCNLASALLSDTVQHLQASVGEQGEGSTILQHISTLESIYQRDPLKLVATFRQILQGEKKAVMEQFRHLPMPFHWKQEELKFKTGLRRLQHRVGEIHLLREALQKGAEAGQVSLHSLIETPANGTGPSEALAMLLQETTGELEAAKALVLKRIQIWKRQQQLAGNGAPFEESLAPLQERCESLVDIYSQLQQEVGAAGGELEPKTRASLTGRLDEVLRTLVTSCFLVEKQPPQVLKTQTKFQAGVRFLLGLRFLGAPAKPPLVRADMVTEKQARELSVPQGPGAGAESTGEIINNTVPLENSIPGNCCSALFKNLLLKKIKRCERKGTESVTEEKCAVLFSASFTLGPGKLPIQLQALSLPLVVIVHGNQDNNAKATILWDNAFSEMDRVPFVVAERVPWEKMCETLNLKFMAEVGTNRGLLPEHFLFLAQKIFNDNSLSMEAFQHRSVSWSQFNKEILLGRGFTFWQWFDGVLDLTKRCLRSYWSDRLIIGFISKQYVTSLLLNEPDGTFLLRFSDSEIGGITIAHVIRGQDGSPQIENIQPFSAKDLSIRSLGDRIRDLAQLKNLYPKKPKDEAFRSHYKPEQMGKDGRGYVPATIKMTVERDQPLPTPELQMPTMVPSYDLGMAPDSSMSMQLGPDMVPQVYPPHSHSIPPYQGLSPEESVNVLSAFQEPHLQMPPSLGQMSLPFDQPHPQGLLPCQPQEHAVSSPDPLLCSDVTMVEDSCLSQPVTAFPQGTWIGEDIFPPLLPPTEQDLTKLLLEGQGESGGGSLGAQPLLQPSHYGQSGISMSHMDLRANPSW
As to the kind of experiment: Immunoblotting (Western blot) analysis of STAT6 degradation efficiency of degraders in treated cells. The format is cell-based. Put shortly: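 Each data point uses roughly one million cells dosed as indicated; pellets are lysed on ice, freeze-thawed, and clarified. Reduced, denatured samples (95 °C, 5 min) run on SDS gels, then membranes receive rabbit mAbs to STAT5 or STAT6 plus mouse anti-GAPDH overnight, followed by dye-labelled secondaries for fluorescence imaging.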

Setting [1] is: L1236 cells, read-out: DC50 S6 L1236.
[2] abbreviates: MOLM-16 cells, class symbols, read-out: DC50 S6 MOLM-16.

Where two headings read alike, the source gives them in different places.

Take `Cc1ncsc1-c1ccc([C@H](C)NC(=O)[C@@H]2C[C@@H](O)CN2C(=O)[C@@H](NC(=O)CCCCCCCNC(=O)COc2ccc3c(c2)CN(C(=O)[C@@H](NC(=O)c2cc4cc(C(F)(F)P(=O)(O)O)ccc4s2)C(C)(C)C)[C@H](C(=O)N2CCO[C@H](c4ccccc4)C2)C3)C(C)(C)C)cc1` [Compound 467, (difluoro(2-(((S)-1-((S)-7-(2-((8-(((S)-1-((2S,4R)-4-hydroxy-2-(((S)-1-(4-(4-methylthiazol-5-yl)phenyl)ethyl)carbamoyl)pyrrolidin-1-yl)-3,3-dimethyl-1-oxobutan-2-yl)amino)-8-oxooctyl)amino)-2-oxoethoxy)-3-((R)-2-phenylmorpholine-4-carbonyl)-3,4-dihydroisoquinolin-2(1H)-yl)-3,3-dimethyl-1-oxobutan-2-yl)carbamoyl)benzo[b]thiophen-5-yl)methyl)phosphonic acid]: the 50% degradation concentration (DC50) reads like this: under setting [1], above 10 µM; under setting [2], above 10 µM.

In the case of `CC(C)(C)[C@H](NC(=O)c1cc2cc(C(F)(F)P(=O)(O)O)ccc2s1)C(=O)N1Cc2cc(OCC(=O)NCCC#Cc3cccc4c3C(=O)N(C3CCC(=O)NC3=O)C4=O)ccc2C[C@H]1C(=O)N1CCC[C@H](c2ccccc2)C1` (stereo partly drawn) [Compound 551, ((2-(((2S)-1-((3S)-7-(2-((4-(2-(2,6-dioxopiperidin-3-yl)-1,3-dioxoisoindolin-4-yl)but-3-yn-1-yl)amino)-2-oxoethoxy)-3-((R)-3-phenylpiperidine-1-carbonyl)-3,4-dihydroisoquinolin-2(1H)-yl)-3,3-dimethyl-1-oxobutan-2-yl)carbamoyl)benzo[b]thiophen-5-yl)difluoromethyl)phosphonic acid], the 50% degradation concentration (DC50) under setting [2] was above 10 µM. Regarding `Cc1ncsc1-c1ccc([C@H](C)NC(=O)[C@@H]2C[C@@H](O)CN2C(=O)[C@@H](NC(=O)CCCCNC(=O)CO[C@H]2C[C@@H](C(=O)N3CCC[C@H](c4ccccc4)C3)N(C(=O)[C@@H](NC(=O)c3cc4cc(C(F)(F)P(=O)(O)O)ccc4s3)C(C)(C)C)C2)C(C)(C)C)cc1` [Compound 437, (difluoro(2-(((S)-1-((2S,4S)-4-(2-((5-(((S)-1-((2S,4R)-4-hydroxy-2-(((S)-1-(4-(4-methylthiazol-5-yl)phenyl)ethyl)carbamoyl)pyrrolidin-1-yl)-3,3-dimethyl-1-oxobutan-2-yl)amino)-5-oxopentyl)amino)-2-oxoethoxy)-2-((R)-3-phenylpiperidine-1-carbonyl)pyrrolidin-1-yl)-3,3-dimethyl-1-oxobutan-2-yl)carbamoyl)benzo[b]thiophen-5-yl)methyl)phosphonic acid], the DC50 runs as follows: under setting [1], above 10 µM; under setting [2], above 10 µM. Consider `Cc1ncsc1-c1ccc([C@H](C)NC(=O)[C@@H]2C[C@@H](O)CN2C(=O)[C@@H](NC(=O)CCCCNC(=O)CC(=O)N2CCN(C(=O)[C@@H](NC(=O)c3cc4cc(C(F)(F)P(=O)(O)O)ccc4s3)C(C)(C)C)[C@H](C(=O)N3CCO[C@H](c4ccccc4)C3)C2)C(C)(C)C)cc1` [Compound 446, (difluoro(2-(((S)-1-((S)-4-(3-((5-(((S)-1-((2S,4R)-4-hydroxy-2-(((S)-1-(4-(4-methylthiazol-5-yl)phenyl)ethyl)carbamoyl)pyrrolidin-1-yl)-3,3-dimethyl-1-oxobutan-2-yl)amino)-5-oxopentyl)amino)-3-oxopropanoyl)-2-((R)-2-phenylmorpholine-4-carbonyl)piperazin-1-yl)-3,3-dimethyl-1-oxobutan-2-yl)carbamoyl)benzo[b]thiophen-5-yl)methyl)phosphonic acid], for which the DC50 is above 10 µM under setting [1] and above 10 µM under setting [2].

`Cc1ncsc1-c1ccc([C@H](C)NC(=O)[C@@H]2C[C@@H](O)CN2C(=O)[C@@H](NC(=O)CCCCCCCNC(=O)CC(=O)N2CCN(C(=O)[C@@H](NC(=O)c3cc4cc(C(F)(F)P(=O)(O)O)ccc4s3)C(C)(C)C)[C@H](C(=O)N3CCO[C@H](c4ccccc4)C3)C2)C(C)(C)C)cc1` [Compound 449, (difluoro(2-(((S)-1-((S)-4-(3-((8-(((S)-1-((2S,4R)-4-hydroxy-2-(((S)-1-(4-(4-methylthiazol-5-yl)phenyl)ethyl)carbamoyl)pyrrolidin-1-yl)-3,3-dimethyl-1-oxobutan-2-yl)amino)-8-oxooctyl)amino)-3-oxopropanoyl)-2-((R)-2-phenylmorpholine-4-carbonyl)piperazin-1-yl)-3,3-dimethyl-1-oxobutan-2-yl)carbamoyl)benzo[b]thiophen-5-yl)methyl)phosphonic acid]: the 50% degradation concentration (DC50) under setting [1] is above 10 µM and the 50% degradation concentration (DC50) under setting [2] is above 10 µM. As for `CC(C)(C)[C@H](NC(=O)c1cc2cc(C(F)(F)P(=O)(O)O)ccc2s1)C(=O)N1C[C@@H](OCC(=O)NCCCCCCCCC#Cc2cccc3c2C(=O)N(C2CCC(=O)NC2=O)C3=O)C[C@H]1C(=O)N1CCC[C@H](c2ccccc2)C1` (stereo partly drawn) [Compound 503, ((2-(((2S)-1-((2S,4S)-4-(2-((10-(2-(2,6-dioxopiperidin-3-yl)-1,3-dioxoisoindolin-4-yl)dec-9-yn-1-yl)amino)-2-oxoethoxy)-2-((R)-3-phenylpiperidine-1-carbonyl)pyrrolidin-1-yl)-3,3-dimethyl-1-oxobutan-2-yl)carbamoyl)benzo[b]thiophen-5-yl)difluoromethyl)phosphonic acid], the DC50 under setting [2] is above 10 µM. On the same count and under the same terms, for `CC(C)(C)[C@H](NC(=O)c1cc2cc(C(F)(F)P(=O)(O)O)ccc2s1)C(=O)N1C[C@@H](OCC(=O)NCCCCCC#Cc2cccc3c2C(=O)N(C2CCC(=O)NC2=O)C3=O)C[C@H]1C(=O)N1CCC[C@H](c2ccccc2)C1` (stereo partly drawn) [Compound 501, ((2-(((2S)-1-((2S,4S)-4-(2-((7-(2-(2,6-dioxopiperidin-3-yl)-1,3-dioxoisoindolin-4-yl)hept-6-yn-1-yl)amino)-2-oxoethoxy)-2-((R)-3-phenylpiperidine-1-carbonyl)pyrrolidin-1-yl)-3,3-dimethyl-1-oxobutan-2-yl)carbamoyl)benzo[b]thiophen-5-yl)difluoromethyl)phosphonic acid] the value was above 10 µM. Same read-out and setting: the figure for `Cc1ncsc1-c1ccc([C@H](C)NC(=O)[C@@H]2C[C@@H](O)CN2C(=O)[C@@H](NC(=O)CCCCCNC(=O)COc2ccc3c(c2)CN(C(=O)[C@@H](NC(=O)c2cc4cc(C(F)(F)P(=O)(O)O)ccc4s2)C(C)(C)C)[C@H](C(=O)N2CCC[C@H](c4ccccc4)C2)C3)C(C)(C)C)cc1` [Compound 474, (difluoro(2-(((S)-1-((S)-7-(2-((6-(((S)-1-((2S,4R)-4-hydroxy-2-(((S)-1-(4-(4-methylthiazol-5-yl)phenyl)ethyl)carbamoyl)pyrrolidin-1-yl)-3,3-dimethyl-1-oxobutan-2-yl)amino)-6-oxohexyl)amino)-2-oxoethoxy)-3-((R)-3-phenylpiperidine-1-carbonyl)-3,4-dihydroisoquinolin-2(1H)-yl)-3,3-dimethyl-1-oxobutan-2-yl)carbamoyl)benzo[b]thiophen-5-yl)methyl)phosphonic acid] is above 10 µM. As to `CC(C)(C)[C@H](NC(=O)c1cc2cc(C(F)(F)P(=O)(O)O)ccc2s1)C(=O)N1C[C@@H](OCCCCCCCCCCC#Cc2cccc3c2CN(C2CCC(=O)NC2=O)C3=O)C[C@H]1C(=O)N1CCO[C@H](c2ccccc2)C1` (stereo partly drawn) [Compound 585, ((2-(((2S)-1-((2S,4S)-4-((12-(2-(2,6-dioxopiperidin-3-yl)-1-oxoisoindolin-4-yl)dodec-11-yn-1-yl)oxy)-2-((R)-2-phenylmorpholine-4-carbonyl)pyrrolidin-1-yl)-3,3-dimethyl-1-oxobutan-2-yl)carbamoyl)benzo[b]thiophen-5-yl)difluoromethyl)phosphonic acid], the DC50 under setting [1] was above 10 µM and the 50% degradation concentration (DC50) (MOLM-16 cells, numeric bound, read-out: DC50 S6 MOLM-16) is above 0.3 µM.

As to `CC(C)(C)[C@H](NC(=O)c1cc2cc(C(F)(F)P(=O)(O)O)ccc2s1)C(=O)N1Cc2cc(OCC(=O)NCCCCCCCCCC#Cc3ccc4c(c3)C(=O)N(C3CCC(=O)NC3=O)C4=O)ccc2C[C@H]1C(=O)N1CCC[C@H](c2ccccc2)C1` (stereo partly drawn) [Compound 562, ((2-(((2S)-1-((3S)-7-(2-((11-(2-(2,6-dioxopiperidin-3-yl)-1,3-dioxoisoindolin-5-yl)undec-10-yn-1-yl)amino)-2-oxoethoxy)-3-((R)-3-phenylpiperidine-1-carbonyl)-3,4-dihydroisoquinolin-2(1H)-yl)-3,3-dimethyl-1-oxobutan-2-yl)carbamoyl)benzo[b]thiophen-5-yl)difluoromethyl)phosphonic acid], the DC50 under setting [2] is above 10 µM.
